For one assay, the system named is TNFα. In words: TNFα expression in RAW 264 macrophages. The format is cell-based. The method, then:
(§1) RAW 264 macrophages and 3T3-L1 preadipocytes (American Type Culture Collection) were incubated at a density of 8000 cells/cm2 (10 cm2 dish) and grown in Dulbecco's modified Eagle's medium (DMEM) containing 10% FBS and antibiotics (adipocyte medium) at 37° C. in 5% CO2 in air. Confluent 3T3-L1 preadipocytes were induced to differentiate with a standard differentiation medium consisting of DMEM-F10 (1:1, vol/vol) medium supplemented with 1% FBS, 1 μM dexamethasone, IBMX (0.5 mM) and antibiotics (1% Penicillin-Streptomycin). Preadipocytes were maintained in this differentiation medium for 3 days and subsequently cultured in adipocyte medium. Cultures were re-fed every 2-3 days to allow 90% cells to reach fully differentiation for 3T3-L1 adipocytes or grow to a confluence for RAW 264 before conducting chemical treatment.
(§2) Cells were washed with fresh adipocyte medium, re-fed with medium containing the indicated treatments, and incubated at 37° C. in 5% CO2 for 48 hours before analysis. Cell viability was measured via trypan blue exclusion.
Human adipocytes (Zen-Bio, Inc.), 3T3-L1 adipocytes, RAW264 macrophages were obtained and co-cultured by using transwell inserts with 0.4 μm porous membranes (Corning) to separate adipocytes and macrophages. All data are expressed as mean±SEM. Data were evaluated for statistical significance by analysis of one-way or two-way variance (ANOVA; means with different letter differ, p<0.05).
Adipocyte and muscle 18s, CD14, TNFα, MIP, M-CSF, IL-6 and MCP-1 were quantitatively measured using a Smart Cycler Real Time PCR System (Cepheid, Sunnyvale, Calif.) with a TaqMan 1000 Core Reagent Kit (Applied Biosystems, Branchburg, N.J.). […] Reactions of quantitative RT-PCR for standards and unknown samples were also performed according to the instructions of Smart Cycler System (Cepheid, Sunnyvale, Calif.) and TaqMan Real Time PCR Core Kit (Applied Biosystems, Branchburg, N.J.). The mRNA quantitation for each sample was further normalized using the corresponding 18s quantitation.

In another assay the test system is 3T3-L1 adipocytes. The assay is described as follows: Intracellular ROS generation in cultured adipocytes (H2-DCFDA). Format: cell-based, mouse. Particulars: compound plus glucose 30 mmol/L, 48 hours. The procedure:
3T3-L1 preadipocytes were incubated at a density of 8000 cells/cm^2 (10 cm^2 dish) and grown in Dulbecco's modified Eagle's medium (DMEM) containing 10% FBS and antibiotics (adipocyte medium) at 37° C. in 5% CO2 in air. Confluent preadipocytes were induced to differentiate with a standard differentiation medium consisting of DMEM-F10 (1:1, vol/vol) medium supplemented with 1% FBS, 1 μM dexamethasone, IBMX (0.5 mM) and antibiotics (1% Penicillin-Streptomycin). Preadipocytes were maintained in this differentiation medium for 3 days and subsequently cultured in adipocyte medium. Cultures were re-fed every 2-3 days to allow 90% of cells to reach full differentiation before conducting chemical treatment. Chemicals were freshly diluted in adipocyte medium before treatment. Cells were washed with fresh adipocyte medium, re-fed with medium containing the different treatments, and incubated at 37° C. in 5% CO2 in air before analysis. Cell viability was measured via trypan blue exclusion. […] Cells were loaded with H2-DCFDA (2 μmol/L) 30 minute before the end of the incubation period (48 h). After washing twice with PBS, cells were scraped and disrupted by sonication on ice (20 s). Fluorescence (emission 543 nm or 527 nm) and DNA content were then measured as described previously. The intensity of fluorescence was expressed as arbitrary units per ng DNA.

Another assay has as its system IL-6. The assay is described as follows: IL-6 expression in RAW 264 macrophages. Format: cell-based. The following applies: co-culture with differentiated 3T3-L1 adipocytes. The method, then: as §1, with “Cultures were re-fed every 2-3 days to allow 90% cells to reach fully differentiation for 3T3-L1 adipocytes or grow to a confluence for RAW 264 before conducting chemical treatment.” left out
as §2
Human adipocytes (Zen-Bio, Inc.), 3T3-L1 adipocytes, RAW264 macrophages were obtained and co-cultured by using transwell inserts with 0.4 μm porous membranes (Corning) to separate adipocytes and macrophages. All data are expressed as mean±SEM. Data were evaluated for statistical significance by analysis of one-way or two-way variance (ANOVA; means with different letter differ, p<0.05). […]

In assay [1] the test system is macrophage inhibitory factor (MIF). In words: MIF expression in human adipocytes. Format: cell-based. The following applies: calcitriol 10 nmol/L, 48 hours; p=0.001.
Excerpt: Cell culture: Human preadipocytes used in this study were supplied by Zen-Bio (Research Triangle, N.C.). Preadipocytes were inoculated in DMEM/Ham's F-10 medium (DMEM-F10) (1:1, vol/vol) containing 10% FBS, 15 mmol/L HEPES, and antibiotics at a density of 30,000 cells/cm2. Confluent monolayers of preadipocytes were induced to differentiate with a standard differentiation medium consisting of DMEM-F10 (1:1, vol/vol) medium supplemented with 15 mmol/L HEPES, 3% FBS, 33 μmol/L biotin, 17 μmol/L pantothenate, 100 nmol/L insulin, […] methylisobutylxanthine, 1 μmol/L dexamethasone, 1 μmol/L BRL49653, and antibiotics. […]
as §2
Adipocyte and muscle 18s, CD14, TNFα, MIP, M-CSF, IL-6 and MCP-1 were quantitatively measured using a Smart Cycler Real Time PCR System (Cepheid, Sunnyvale, Calif.) with a TaqMan 1000 Core Reagent Kit (Applied Biosystems, Branchburg, N.J.). […] Reactions of quantitative RT-PCR for standards and unknown samples were also performed according to the instructions of Smart Cycler System (Cepheid, Sunnyvale, Calif.) and TaqMan Real Time PCR Core Kit (Applied Biosystems, Branchburg, N.J.). […]

The next assay concerns fatty acid synthase. In words: Fatty acid synthase gene expression in adipocytes. The format is cell-based, murine. The following applies: p<0.05. The source says: The adipose tissue-skeletal muscle endocrine axis may play a potential role in regulating metabolic energy partitioning. […] However, the effect of leucine and calcium, in regulating this process is unclear. Accordingly, present study was designed to investigate the effect of leucine, calcitriol and calcium on energy metabolism in murine adipocytes and muscle cells.

Another assay deals with C2C12 myotubes. In words: Fatty acid oxidation (palmitate oxidation) in muscle cells. Format: cell-based, murine. Particulars: calcitriol 10 nM, 48 hours; p<0.05. The procedure:
FIG. 53: Fatty acid oxidation was determined via palmitate oxidation. […] Data are corrected for DNA content. Values are presented as mean±SEM, n=6. Means with different letter differ with p<0.05.
The adipose tissue-skeletal muscle endocrine axis may play a potential role in regulating metabolic energy partitioning. […] While both calcium and dairy accelerate adipose tissue loss, dairy exerts a substantially greater effect and exerts a protective effect on lean tissue during hypocaloric diets. We have shown that dietary calcium modulation of adiposity is mediated, in part, by suppression of calcitriol, while the additional effect of dairy is mediated by additional bioactive components; these include the high concentration of leucine, a key factor in the regulation of muscle protein turnover. […] However, the effect of leucine and calcium, in regulating this process is unclear. Accordingly, present study was designed to investigate the effect of leucine, calcitriol and calcium on energy metabolism in murine adipocytes and muscle cells. Leucine induced a 41% increase in fatty acid oxidation in C2C12 muscle cells (p<0.001) and decreased fatty acid synthase gene expression by 66% (p<0.001) in 3T3-L1 adipocytes. Calcitriol decreased muscle cell fatty acid oxidation by 17% (p<0.05) and increased adipocyte FAS gene expression by 3-fold (p<0.05).

Results on one compound are retold here after patent US20110038948A1, “Methods of Reducing the Production of Reactive Oxygen Species and Methods of Screening or Identifying Compounds and Compositions that Reduce the Production of Reactive Oxygen Species” (UNIVERSITY OF TENNESSEE RESEARCH FOUNDATION, priority 2005, published 2011).

Structures are written as SMILES.

For `C=C1/C(=C\C=C2/CCC[C@]3(C)[C@@H]([C@H](C)CCCC(C)(C)O)CC[C@@H]23)C[C@@H](O)C[C@@H]1O` [calcitriol, 1,25-(OH)2-D3], the “stimulation of TNFα expression” value in the assay on TNFα (RAW 264 macrophages cultured alone) is reported as 91%. Besides, the “effect on TNFα expression in macrophages” value in the assay with TNFα (co-culture with differentiated 3T3-L1 adipocytes) was “further enhanced”. Further, the “effect on high glucose induced ROS production” value in the assay on 3T3-L1 adipocytes is recorded as “greater stimulation of ROS production than either glucose alone or glucose plus GDP”. In addition, the “effect on IL-6 expression in macrophages” value in the assay with IL-6 is recorded as “further enhanced”. In addition, the “increase in MIF expression” value in assay [1] amounted to 59%. Moreover, the “increase in adipocyte FAS gene expression” value in the assay with fatty acid synthase came to 3 fold. Besides, the “decrease in muscle cell fatty acid oxidation” value in the assay with C2C12 myotubes was 17%.
